Like-named read-outs stand apart in the source and are kept apart here.
How the values were obtained:
[1] = biological target: T1, BRG-1 (Homo sapiens, UniProt P51532); assay: ATPase catalytic activity of BRG-1, ADP-Glo in vitro biochemical assay; conditions: ATPase catalytic activity, 30 nM BRG-1, 400 μM ATP
T1 construct: made in house; host or cells: High Five insect cells

[2] = biological target: T2, BRM (Homo sapiens, UniProt P51531); assay: ATPase catalytic activity of BRM, ADP-Glo in vitro biochemical assay; conditions: ATPase catalytic activity, 30 nM BRM, 400 μM ATP
T2 construct: made in house; host or cells: High Five insect cells
T2 sequence (P51531 whole entry): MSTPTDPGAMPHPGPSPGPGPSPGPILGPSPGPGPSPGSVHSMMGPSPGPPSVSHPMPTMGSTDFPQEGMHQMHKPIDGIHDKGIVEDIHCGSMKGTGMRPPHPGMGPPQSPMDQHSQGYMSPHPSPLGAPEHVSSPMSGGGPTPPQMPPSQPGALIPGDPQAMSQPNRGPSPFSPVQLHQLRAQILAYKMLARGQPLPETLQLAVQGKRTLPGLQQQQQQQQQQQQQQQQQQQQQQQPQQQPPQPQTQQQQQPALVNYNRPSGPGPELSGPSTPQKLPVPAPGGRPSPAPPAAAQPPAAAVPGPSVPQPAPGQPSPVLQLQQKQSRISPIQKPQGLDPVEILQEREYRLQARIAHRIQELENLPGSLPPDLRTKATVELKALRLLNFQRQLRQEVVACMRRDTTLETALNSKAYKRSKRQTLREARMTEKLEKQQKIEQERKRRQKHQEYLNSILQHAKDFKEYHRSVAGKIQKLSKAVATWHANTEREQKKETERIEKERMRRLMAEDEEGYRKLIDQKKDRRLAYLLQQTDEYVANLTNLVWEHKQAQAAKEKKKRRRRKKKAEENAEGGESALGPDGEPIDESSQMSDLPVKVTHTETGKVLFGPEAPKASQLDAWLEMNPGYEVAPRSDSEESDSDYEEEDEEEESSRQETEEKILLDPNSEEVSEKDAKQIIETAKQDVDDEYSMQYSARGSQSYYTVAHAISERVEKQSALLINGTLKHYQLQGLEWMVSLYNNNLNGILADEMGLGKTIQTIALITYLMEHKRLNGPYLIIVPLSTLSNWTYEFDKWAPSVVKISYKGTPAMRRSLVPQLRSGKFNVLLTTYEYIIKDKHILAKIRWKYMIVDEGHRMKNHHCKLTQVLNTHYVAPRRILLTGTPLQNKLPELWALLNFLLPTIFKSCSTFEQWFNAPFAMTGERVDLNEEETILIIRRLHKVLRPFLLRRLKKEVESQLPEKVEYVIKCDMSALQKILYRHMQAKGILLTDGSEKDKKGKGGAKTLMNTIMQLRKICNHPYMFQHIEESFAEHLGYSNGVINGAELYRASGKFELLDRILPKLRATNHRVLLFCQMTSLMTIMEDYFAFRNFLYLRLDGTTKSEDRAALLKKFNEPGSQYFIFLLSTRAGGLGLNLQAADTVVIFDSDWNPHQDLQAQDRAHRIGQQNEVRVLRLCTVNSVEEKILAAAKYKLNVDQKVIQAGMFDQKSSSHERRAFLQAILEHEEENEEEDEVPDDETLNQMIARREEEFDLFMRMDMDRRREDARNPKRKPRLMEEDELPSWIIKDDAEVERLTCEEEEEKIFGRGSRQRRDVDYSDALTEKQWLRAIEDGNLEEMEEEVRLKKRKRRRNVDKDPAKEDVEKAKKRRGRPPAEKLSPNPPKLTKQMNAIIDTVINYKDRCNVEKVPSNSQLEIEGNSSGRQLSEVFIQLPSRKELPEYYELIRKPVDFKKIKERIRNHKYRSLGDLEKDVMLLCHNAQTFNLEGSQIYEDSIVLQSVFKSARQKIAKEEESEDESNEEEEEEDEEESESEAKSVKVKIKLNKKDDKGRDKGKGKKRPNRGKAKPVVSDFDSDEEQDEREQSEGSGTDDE

T1 sequence (P51532 whole entry): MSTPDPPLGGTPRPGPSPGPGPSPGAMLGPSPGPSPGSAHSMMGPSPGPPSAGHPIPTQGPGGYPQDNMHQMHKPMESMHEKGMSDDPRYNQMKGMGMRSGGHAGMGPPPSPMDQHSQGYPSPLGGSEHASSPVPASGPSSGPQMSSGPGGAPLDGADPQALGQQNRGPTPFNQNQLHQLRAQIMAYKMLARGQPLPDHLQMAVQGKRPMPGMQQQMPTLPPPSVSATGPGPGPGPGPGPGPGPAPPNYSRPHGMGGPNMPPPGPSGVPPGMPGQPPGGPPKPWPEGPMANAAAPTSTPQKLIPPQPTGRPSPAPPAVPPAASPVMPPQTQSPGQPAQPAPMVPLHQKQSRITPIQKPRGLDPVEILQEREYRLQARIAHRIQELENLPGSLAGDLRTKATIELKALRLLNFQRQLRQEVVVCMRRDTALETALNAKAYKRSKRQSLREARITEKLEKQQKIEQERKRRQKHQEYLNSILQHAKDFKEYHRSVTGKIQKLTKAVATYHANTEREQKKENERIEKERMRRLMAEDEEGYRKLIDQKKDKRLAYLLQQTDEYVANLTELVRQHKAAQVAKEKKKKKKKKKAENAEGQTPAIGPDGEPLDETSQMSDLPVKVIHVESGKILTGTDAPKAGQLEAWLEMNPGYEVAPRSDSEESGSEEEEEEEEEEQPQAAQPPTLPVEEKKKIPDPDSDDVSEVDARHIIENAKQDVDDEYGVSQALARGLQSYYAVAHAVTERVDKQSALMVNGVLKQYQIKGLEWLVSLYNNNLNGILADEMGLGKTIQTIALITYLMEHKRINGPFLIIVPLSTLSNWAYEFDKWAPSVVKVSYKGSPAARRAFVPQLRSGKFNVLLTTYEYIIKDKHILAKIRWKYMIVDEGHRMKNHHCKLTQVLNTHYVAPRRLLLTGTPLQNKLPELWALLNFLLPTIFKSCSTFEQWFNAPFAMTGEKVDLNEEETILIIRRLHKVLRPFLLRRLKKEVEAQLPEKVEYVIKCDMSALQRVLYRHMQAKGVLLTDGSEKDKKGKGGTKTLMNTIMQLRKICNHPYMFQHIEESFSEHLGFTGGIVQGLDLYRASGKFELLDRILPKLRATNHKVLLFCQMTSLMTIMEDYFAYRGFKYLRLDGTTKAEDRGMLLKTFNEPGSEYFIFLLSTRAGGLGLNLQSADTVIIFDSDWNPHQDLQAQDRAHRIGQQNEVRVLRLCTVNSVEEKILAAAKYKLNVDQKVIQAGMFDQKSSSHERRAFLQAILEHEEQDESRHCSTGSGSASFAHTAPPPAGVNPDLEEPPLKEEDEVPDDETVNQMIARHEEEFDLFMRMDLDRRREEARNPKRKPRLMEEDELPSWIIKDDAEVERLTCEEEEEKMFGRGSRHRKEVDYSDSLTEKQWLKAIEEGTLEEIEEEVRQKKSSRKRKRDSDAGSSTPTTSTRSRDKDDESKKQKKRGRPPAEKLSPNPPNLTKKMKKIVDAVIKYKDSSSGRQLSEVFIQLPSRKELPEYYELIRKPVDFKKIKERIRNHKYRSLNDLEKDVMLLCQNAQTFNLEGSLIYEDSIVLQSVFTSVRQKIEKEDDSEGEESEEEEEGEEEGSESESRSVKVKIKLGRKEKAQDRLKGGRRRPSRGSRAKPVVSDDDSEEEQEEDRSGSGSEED

Row | Structure (SMILES) | IC50 ([1]; read-out: BRG1 IP50 (μM)*) [µM] | IC50 ([2]; read-out: BRM IP50 (μM)*) [µM] | IC50 ([1]; read-out: BRG1 IP50) [µM] | IC50 ([2]; read-out: BRM IP50) [µM]
1 | C[C@H]1C[C@H](C)CN(c2cccc(-c3csc(NC(=O)CNC(=O)c4ccn(S(C)(=O)=O)c4)n3)c2)C1 (racemic) [Compound 187] | > 0.01 | > 0.01 | – | –
2 | CO[C@@H]1CN(c2cccc(-c3csc(NC(=O)CNC(=O)c4ccn(S(C)(=O)=O)c4)n3)c2)C[C@H]1OC (racemic) [Compound 198] | > 0.01 | > 0.01 | – | –
3 | CO[C@H]1CN(c2cccc(-c3csc(NC(=O)CNC(=O)c4ccn(C(C)(C)C)c4)n3)n2)CC[C@@H]1O (racemic) [Compound 310] | > 0.1 | > 0.01 | – | –
4 | C[C@@H]1CC(c2cccc(-c3csc(NC(=O)CNC(=O)c4ccn(S(C)(=O)=O)c4)n3)n2)=C[C@H](C)O1 (racemic) [Compound 350, N-(2-((4-(6-((cis)-2,6-dimethyl-3,6-dihydro-2H-pyran-4-yl)pyridin-2-yl)thiazol-2-yl)amino)-2-oxoethyl)-1-(methylsulfonyl)-1H-pyrrole-3-carboxamide] | < 0.01 | < 0.01 | – | –
5 | C[C@@H]1CC(c2cccc(-c3csc(NC(=O)CNC(=O)c4ccn(S(C)(=O)=O)c4)n3)c2)=C[C@H](C)O1 (racemic) [Compound 391] | – | – | < 0.01 | < 0.01
6 | CS(=O)(=O)n1ccc(C(=O)NCC(=O)Nc2nc(-c3cccc(N4C[C@H]5C[C@@H]4C[C@@H]5O)c3)cs2)c1 (racemic) [Compound 500] | – | – | > 0.1 | > 0.01
7 | CC(C)(C)n1ccc(C(=O)NCC(=O)Nc2nc(-c3cccc(N4CC[C@@H]5CCO[C@H]5C4)n3)cs2)c1 (racemic) [Compound 650] | – | – | > 0.1 | > 0.01
8 | C[C@@H]1CCN(c2cccc(-c3csc(NC(=O)CNC(=O)c4ccn(C(C)(C)C)c4)n3)n2)C[C@H]1F (racemic) [Compound 702, 1-tert-butyl-N-[2-[[4-[6-[(3S,4R)-3-fluoro-4-methyl-1-piperidyl]-2-pyridyl]thiazol-2-yl]amino]-2-oxo-ethyl]pyrrole-3-carboxamide] | – | – | > 0.1 | > 0.01
9 | CC(C)(C)n1ccc(C(=O)NCC(=O)Nc2nc(-c3cccc(N4C[C@H]5CC(F)(F)[C@H]5C4)n3)cs2)c1 (racemic) [Compound 703] | – | – | > 0.1 | > 0.1
10 | C[C@@H]1CN(c2cccc(-c3csc(NC(=O)CNC(=O)c4ccn([C@@]5(C)CCOC5)c4)n3)n2)C[C@H](C)O1 (single isomer, unassigned) [Compound 491] | – | – | > 0.01 | > 0.01
11 | CN(C)Cc1cc(-c2cccc(-c3csc(NC(=O)CNC(=O)c4ccn(S(C)(=O)=O)c4)n3)c2)ccn1 [Compound 1, N-(2-((4-(3-(2-((dimethylamino)methyl)pyridin-4-yl)phenyl)thiazol-2-yl)amino)-2-oxoethyl)-1-(methylsulfonyl)-1H-pyrrole-3-carboxamide] | < 0.01 | < 0.01 | – | –
12 | CC(C)n1ccc(C(=O)NCC(=O)Nc2nc(-c3cccc(-c4ccn(C)n4)c3)cs2)c1 [Compound 2, 1-isopropyl-N-(2-((4-(3-(1-methyl-1H-pyrazol-3-yl)phenyl)thiazol-2-yl)amino)-2-oxoethyl)-1H-pyrrole-3-carboxamide] | > 0.01 | > 0.01 | – | –
13 | CC(C)(C)n1cnc(C(=O)NCC(=O)Nc2nc(-c3cccc(C#N)c3)cs2)c1 [Compound 3, 1-(tert-butyl)-N-(2-((4-(3-cyanophenyl)thiazol-2-yl)amino)-2-oxoethyl)-1H-imidazole-4-carboxamide] | > 1 | > 1 | – | –
14 | CS(=O)(=O)n1ccc(C(=O)NCC(=O)Nc2nc(-c3cnn(-c4ccncc4)c3)cs2)c1 [Compound 6, 1-(methylsulfonyl)-N-(2-oxo-2-((4-(1-(pyridin-4-yl)-1H-pyrazol-4-yl)thiazol-2-yl)amino)ethyl)-1H-pyrrole-3-carboxamide] | > 0.1 | > 0.1 | – | –
15 | CN1CCc2ccc(-c3csc(NC(=O)CNC(=O)c4ccn(C(C)(C)C)c4)n3)cc2C1=O [Compound 7, 1-(tert-butyl)-N-(2-((4-(2-methyl-1-oxo-1,2,3,4-tetrahydroisoquinolin-7-yl)thiazol-2-yl)amino)-2-oxoethyl)-1H-pyrrole-3-carboxamide] | > 0.01 | > 0.01 | – | –
16 | CC(C)(O)Cn1ccc(-c2cccc(-c3csc(NC(=O)CNC(=O)c4ccn(C(C)(C)C)c4)n3)c2)n1 [Compound 8, 1-(tert-butyl)-N-(2-((4-(3-(1-(2-hydroxy-2-methylpropyl)-1H-pyrazol-3-yl)phenyl)thiazol-2-yl)amino)-2-oxoethyl)-1H-pyrrole-3-carboxamide] | > 0.01 | > 0.01 | – | –
17 | C[C@@H]1CN(c2cccc(-c3csc(NC(=O)CNC(=O)c4ccn(S(C)(=O)=O)c4)n3)c2)C[C@H](C)O1 [Compound 10] | < 0.01 | < 0.01 | – | –
18 | Cn1c(=O)ccc2ccc(-c3csc(NC(=O)CNC(=O)c4ccn(S(C)(=O)=O)c4)n3)cc21 [Compound 12, N-(2-((4-(1-methyl-2-oxo-1,2-dihydroquinolin-7-yl)thiazol-2-yl)amino)-2-oxoethyl)-1-(methylsulfonyl)-1H-pyrrole-3-carboxamide] | > 0.01 | > 0.01 | – | –
19 | CN(C)C(=O)CN(C)c1cc(-c2cccc(-c3csc(NC(=O)CNC(=O)c4ccn(S(C)(=O)=O)c4)n3)c2)ccn1 [Compound 13, N-(2-((4-(3-(2-((2-(dimethylamino)-2-oxoethyl)(methyl)amino)pyridin-4-yl)phenyl)thiazol-2-yl)amino)-2-oxoethyl)-1-(methylsulfonyl)-1H-pyrrole-3-carboxamide] | > 0.01 | > 0.01 | – | –
20 | CS(=O)(=O)n1ccc(C(=O)NCC(=O)Nc2nc(-c3cccc(-c4ccnc(C5(C(=O)O)CC5)c4)c3)cs2)c1 [Compound 14, 1-(4-(3-(2-(2-(1-(methylsulfonyl)-1H-pyrrole-3-carboxamido)acetamido)thiazol-4-yl)phenyl)pyridin-2-yl)cyclopropanecarboxylic acid] | < 0.01 | < 0.01 | – | –
21 | CN(CC(=O)O)c1cc(-c2cccc(-c3csc(NC(=O)CNC(=O)c4ccn(S(C)(=O)=O)c4)n3)c2)ccn1 [Compound 15, 2-(methyl(4-(3-(2-(2-(1-(methylsulfonyl)-1H-pyrrole-3-carboxamido)acetamido)thiazol-4-yl)phenyl)pyridin-2-yl)amino)acetic acid] | < 0.01 | < 0.01 | – | –
22 | Cn1cnc(-c2cccc(-c3csc(NC(=O)CNC(=O)c4ccn(S(C)(=O)=O)c4)n3)c2)c1 [Compound 18, N-(2-((4-(3-(1-methyl-1H-imidazol-4-yl)phenyl)thiazol-2-yl)amino)-2-oxoethyl)-1-(methylsulfonyl)-1H-pyrrole-3-carboxamide] | > 0.01 | > 0.01 | – | –
23 | CN1CCN(c2cc(-c3cccc(-c4csc(NC(=O)CNC(=O)c5ccn(S(C)(=O)=O)c5)n4)c3)ccn2)CC1 [Compound 19, N-(2-((4-(3-(2-(4-methylpiperazin-1-yl)pyridin-4-yl)phenyl)thiazol-2-yl)amino)-2-oxoethyl)-1-(methylsulfonyl)-1H-pyrrole-3-carboxamide] | > 0.01 | > 0.01 | – | –

Second part, the compound after the results:

Row | IC50 ([1]; read-out: BRG1 IP50 (μM)*) [µM] | IC50 ([2]; read-out: BRM IP50 (μM)*) [µM] | IC50 ([1]; read-out: BRG1 IP50) [µM] | IC50 ([2]; read-out: BRM IP50) [µM] | Structure (SMILES)
24 | > 0.01 | > 0.01 | – | – | CO[C@@H]1CN(c2cccc(-c3csc(NC(=O)CNC(=O)c4ccn(S(C)(=O)=O)c4)n3)c2)CC[C@@H]1O (racemic) [Compound 158]
25 | – | – | > 0.01 | > 0.01 | CS(=O)(=O)n1ccc(C(=O)NCC(=O)Nc2nc(-c3cccc([C@@H]4CCCCO4)c3)cs2)c1 (racemic) [Compound 392]
26 | – | – | > 0.1 | > 0.1 | CS(=O)(=O)n1ccc(C(=O)NCC(=O)Nc2nc(-c3cccc(N4C[C@H]5C[C@@H]4C[C@H]5O)c3)cs2)c1 (racemic) [Compound 468]
27 | – | – | > 0.01 | > 0.01 | C[C@@H]1CO[C@@H]2CN(c3cccc(-c4csc(NC(=O)CNC(=O)c5ccn(C(C)(C)C)c5)n4)n3)C[C@H]12 (racemic) [Compound 649]
28 | – | – | > 0.01 | > 0.01 | C[C@@H]1CN(c2cccc(-c3csc(NC(=O)CNC(=O)c4ccn(C(C)(C)C)c4)n3)n2)C[C@@H]1F (racemic) [Compound 724]
29 | – | – | > 0.1 | > 0.01 | C[C@@H]1CN(c2cccc(-c3csc(NC(=O)CNC(=O)c4ccn([C@]5(C)CCOC5)c4)n3)n2)C[C@H](C)O1 (single isomer, unassigned) [Compound 490]
30 | < 0.01 | < 0.01 | – | – | CS(=O)(=O)n1ccc(C(=O)NCC(=O)Nc2nc(-c3cccc(-c4ccnc(N)c4)c3)cs2)c1 [Compound 9, N-(2-((4-(3-(2-aminopyridin-4-yl)phenyl)thiazol-2-yl)amino)-2-oxoethyl)-1-(methylsulfonyl)-1H-pyrrole-3-carboxamide]
31 | > 0.01 | > 0.01 | – | – | CO[C@H]1CCCN(c2cccc(-c3csc(NC(=O)CNC(=O)c4ccn(S(C)(=O)=O)c4)n3)c2)C1 [Compound 11, (S)—N-(2-((4-(3-(3-methoxypiperidin-1-yl)phenyl)thiazol-2-yl)amino)-2-oxoethyl)-1-(methylsulfonyl)-1H-pyrrole-3-carboxamide]
32 | < 0.01 | < 0.01 | – | – | CNC(=O)CN(C)c1cc(-c2cccc(-c3csc(NC(=O)CNC(=O)c4ccn(S(C)(=O)=O)c4)n3)c2)ccn1 [Compound 16, N-(2-((4-(3-(2-(methyl(2-(methylamino)-2-oxoethyl)amino)pyridin-4-yl)phenyl)thiazol-2-yl)amino)-2-oxoethyl)-1-(methylsulfonyl)-1H-pyrrole-3-carboxamide]
33 | > 0.01 | > 0.01 | – | – | Cc1nc(-c2cccc(-c3csc(NC(=O)CNC(=O)c4ccn(S(C)(=O)=O)c4)n3)c2)c[nH]1 [Compound 17]
34 | > 0.01 | > 0.01 | – | – | CN(C)CCNc1cc(-c2cccc(-c3csc(NC(=O)CNC(=O)c4ccn(S(C)(=O)=O)c4)n3)c2)ccn1 [Compound 20, N-(2-((4-(3-(2-((2-(dimethylamino)ethyl)amino)pyridin-4-yl)phenyl)thiazol-2-yl)amino)-2-oxoethyl)-1-(methylsulfonyl)-1H-pyrrole-3-carboxamide]
